Measurements taken from patent publication US9751854B2 (Millennium Pharmaceuticals, Inc., priority 2014, dated 2017).

How the values were obtained:
human VPS34 = human VPS34 (Homo sapiens (Human), UniProt Q8NEB9); assay: Human VPS34 enzyme assay (Adapta TR-FRET ADP detection); assay type: biochemical; settings: IC50 range class
A431 cell line = assay: Cellular anti-proliferative assay of VPS34 inhibitors in combination with a second therapeutic agent (Cell Titer Glo, 72 hrs); assay type: cell-based
Description: (§1) Example 57: Cellular Assay for Anti-proliferative Activity of VPS34 Inhibitors in Combination with a Second Therapeutic Agent
(§2) Cells were plated in 25 μl of media in 384 well plates at 1,000 cells per well (A431, PC9, and […] cell lines), 1,500 cells per well (NCI-H1975) or 2,000 cells per well (NCI-H1650). The plates were incubated for 24 hrs at 37° C., 6% CO2. The test compounds (see Table 38 below) were diluted serially, and 62.5 nL of each compound solution (or DMSO, if it is a single agent experiment) is added so the total added to the cells is 125 nL. Cell plates were incubated for 72 hrs at 37° C., 6% CO2. Cell Titer Glo reagent (Promega) was added. The plates were then incubated for 10 minutes at room temperature before luminescence was read on a plate reader such as the Pherastar Plus, Pherastar FS, or LEADSeeker imaging system.
(§3) Bliss antagonism was defined similarly.
(§4) Bliss dependence was defined as the percent cell survival at a certain dose combination divided by the percent cell survival predicted by Bliss independence. More specifically, the Bliss dependence is vAB/(vA*vB), where vAB is the viability with drug A and drug B added, while vA and vB are the viabilities with each drug alone. The dose for the combination used in this study is the inflection point for each drug alone.
(§5) Another way to evaluate additivity is through consideration of Loewe additivity. A difference between Bliss independence and Loewe additivity evaluations of drug combination data is that Bliss independence evaluates whether two drugs interact at all (the null hypothesis is that the mechanisms are entirely independent) and Loewe additivity evaluates whether two drugs interact in an additive fashion (the null hypothesis is that the two drugs work by identical mechanisms). For Bliss independence, the boundary between additivity and synergy must be measured. For Loewe additivity, this boundary is assumed to be at a value of 1. Thus, Bliss independence provides a boundary between antagonism and synergy or additivity. Loewe additivity provides a boundary between synergy and independence or antagonism.
(§6) Synergy can also be measured by nonlinear blending synergy. Nonlinear blending synergy [Peterson, J. J. and Novik, S. J. J Recept Signal Transduct Res, 27, 12-146 (2007))] is found by considering the percent cell death values along the nonlinear blending plot. If the maximum cell death occurs between the endpoints, then the blending synergy is the difference between the maximum cell death for the combined drugs and the maximum cell death for the either drug alone.
(§7) A derivative of Loewe additivity is the Combination Index, I (see Chou T. C., Talalay P. Adv. Enzyme Reg., 22: 27-55 (1984) and Berenbaum M. C. J. Theor. Biol., 114:413-431 (1985)). This measure is based on the shape of the isobologram which represents 50% viability (for a review of the use of isobolograms in analysis of drug combinations, see Tallarida, R. J. J. Pharm. Exp. Therap. 319:1-7 (2006)).
(§8) The results in Table 38A were summarized by categorizing the Combination Index, I. A mean Combination Index in the range (0.7-1.3) is classified as Additivity. A mean in the range (0-0.7) is classified as Synergy. A mean in the range (1.3-2) is classified as Subadditivity. A mean greater than 2 is classified as Antagonism. […] In this case, the Nonlinear Blending Synergy is used instead to generate a call (Table 38B). The categorization is similar to the Combination Index. A Nonlinear Blending Synergy within the range (−20, 20) is classified as Additive. A value below −20 is classified as Antagonism, while a value above 20 is classified as Synergy.

NCI-H1650 cell line = assay: as above; assay type: cell-based, human; settings: NCI H-1650; for Blending Synergy: in combination with Erlotinib (Compound Y)
Description: as §1, §2, §3, §4, §5, §6, §7, §8

NCI-H1975 cell line = assay: as above; assay type: cell-based, human
Description: as §1, §2, §3, §4, §5, §6, §7, §8

PC9 cell line = assay: as above; assay type: cell-based, human
Description: as §1, §2, §3, §4, §5, §6, §7, §8

[1] = in combination with Afatinib (Compound Y)
[2] = in combination with Afatinib, call from Combination Index
[3] = in combination with Erlotinib (Compound Y)
[4] = in combination with Erlotinib, call from Combination Index
[5] = in combination with AZD9291 (Compound Y)
[6] = in combination with AZD9291, call from Combination Index
[7] = in combination with CO-1686 (Compound Y)
[8] = in combination with CO-1686, call from Combination Index

human VPS34, sequence (Q8NEB9 whole entry): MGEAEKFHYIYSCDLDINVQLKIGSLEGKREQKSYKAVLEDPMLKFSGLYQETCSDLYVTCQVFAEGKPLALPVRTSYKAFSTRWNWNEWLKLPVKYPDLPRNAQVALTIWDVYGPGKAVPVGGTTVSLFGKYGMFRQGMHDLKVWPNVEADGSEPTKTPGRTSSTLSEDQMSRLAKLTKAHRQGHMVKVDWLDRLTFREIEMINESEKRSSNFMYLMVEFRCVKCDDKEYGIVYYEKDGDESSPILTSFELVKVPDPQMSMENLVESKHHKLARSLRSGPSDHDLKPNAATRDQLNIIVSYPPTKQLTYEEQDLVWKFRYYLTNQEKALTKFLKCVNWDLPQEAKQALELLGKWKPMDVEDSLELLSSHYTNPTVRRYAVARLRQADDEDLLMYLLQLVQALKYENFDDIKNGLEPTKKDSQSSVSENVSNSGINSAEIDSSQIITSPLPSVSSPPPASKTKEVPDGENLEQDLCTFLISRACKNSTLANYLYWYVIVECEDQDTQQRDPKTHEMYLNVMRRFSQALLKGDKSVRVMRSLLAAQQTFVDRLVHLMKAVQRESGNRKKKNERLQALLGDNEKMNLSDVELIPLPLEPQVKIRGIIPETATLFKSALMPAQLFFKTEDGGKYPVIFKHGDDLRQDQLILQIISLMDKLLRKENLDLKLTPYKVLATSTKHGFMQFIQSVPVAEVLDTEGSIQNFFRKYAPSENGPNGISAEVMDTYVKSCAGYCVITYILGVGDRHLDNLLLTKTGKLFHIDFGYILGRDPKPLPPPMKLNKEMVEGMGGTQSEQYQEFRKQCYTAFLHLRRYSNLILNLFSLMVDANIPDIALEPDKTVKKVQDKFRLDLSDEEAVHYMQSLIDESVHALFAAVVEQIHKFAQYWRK

| IC50 (human VPS34) [nM] | Compound | Combination Index (A431 cell line; [1]) | Meaning (A431 cell line; [2]) | Combination Index (NCI-H1650 cell line; [1]) | Blending Synergy (NCI-H1650 cell line) | Combination Index (NCI-H1975 cell line; [1]) | Combination Index (PC9 cell line; [1]) | Meaning (PC9 cell line; [2]) | Combination Index (PC9 cell line; [3]) | Meaning (PC9 cell line; [4]) | Combination Index (A431 cell line; [7]) | Meaning (A431 cell line; [8]) | Combination Index (NCI-H1650 cell line; [5]) | Combination Index (NCI-H1650 cell line; [7]) | Combination Index (NCI-H1975 cell line; [5]) | Combination Index (NCI-H1975 cell line; [7]) | Combination Index (PC9 cell line; [5]) | Meaning (PC9 cell line; [6]) | Combination Index (PC9 cell line; [7]) | Meaning (PC9 cell line; [8]) | also measured |
| --- | --- | --- | --- | --- | --- | --- | --- | --- | --- | --- | --- | --- | --- | --- | --- | --- | --- | --- | --- | --- | --- |
| < 10 | Cc1ncc(-c2ccnc(Nc3ccncn3)c2)cc1NS(=O)(=O)N(C)C [Compound I-217, N,N-dimethyl-N′-[6-methyl-2′-(pyrimidin-4-ylamino)-3,4′-bipyridin-5-yl]sulfuric diamide] | 0.36 | Synergy (A mean in the range (0-0.7) is classified as Synergy) | 0.31 | 28.65 | 0.52 | 0.97 | Additivity (A mean Combination Index in the range (0.7-1.3) is classified as Additivity) | 0.87 | Additivity (A mean Combination Index in the range (0.7-1.3) is classified as Additivity) | – | – | – | – | – | – | – | – | – | – | Combination Index (A431 cell line; [3]): 0.46; Meaning (A431 cell line; [4]): Synergy (A mean in the range (0-0.7) is classified as Synergy) |
| 10 to 50 | Cc1nccc(Nc2cc(-c3cnc(C)c(C(=O)N4CCC4)c3)ccn2)n1 [Compound I-304, Azetidin-1-yl(6-methyl-2′-((2-methylpyrimidin-4-yl)amino)-3,4′-bipyridin-5-yl)methanone] | – | – | – | – | – | – | – | – | – | 0.99 | Additivity (A mean Combination Index in the range (0.7-1.3) is classified as Additivity) | 0.80 | 0.47 | 1.00 | 0.77 | 0.98 | Additivity (A mean Combination Index in the range (0.7-1.3) is classified as Additivity) | 0.90 | Additivity (A mean Combination Index in the range (0.7-1.3) is classified as Additivity) | Combination Index (A431 cell line; [5]): 0.78; Meaning (A431 cell line; [6]): Additivity (A mean Combination Index in the range (0.7-1.3) is classified as Additivity) |
| < 10 | Cc1c(-c2ccnc(NC(=O)C3CC3)c2)cnc(Cl)c1NS(=O)(=O)c1ccc(F)cc1F [Compound I-308, N-(6-chloro-5-{[(2,4-difluorophenyl)sulfonyl]amino}-4-methyl-3,4′-bipyridin-2′-yl)cyclopropanecarboxamide] | – | – | 0.55 | 27.0 | 0.84 | 1.49 | Subadditivity (A mean in the range (1.3-2) is classified as Subadditivity) | 1.36 | Subadditivity (A mean in the range (1.3-2) is classified as Subadditivity) | 0.88 | Additivity (A mean Combination Index in the range (0.7-1.3) is classified as Additivity) | 0.53 | 0.36 | 0.72 | 0.60 | 1.33 | Subadditivity (A mean in the range (1.3-2) is classified as Subadditivity) | 1.19 | Additivity (A mean Combination Index in the range (0.7-1.3) is classified as Additivity) | Blending Synergy (A431 cell line; [5]): 10.2; Meaning (A431 cell line; in combination with AZD9291, call from Nonlinear Blending Synergy): Additivity; Blending Synergy (A431 cell line; [1]): 11.2; Meaning (A431 cell line; in combination with Afatinib, call from Nonlinear Blending Synergy): Additivity; Blending Synergy (A431 cell line; [3]): 15.2; Meaning (A431 cell line; in combination with Erlotinib, call from Nonlinear Blending Synergy): Additivity |

| Compound | IC50 (human VPS34) [nM] | Combination Index (A431 cell line; [1]) | Meaning (A431 cell line; [2]) | Combination Index (NCI-H1650 cell line; [1]) | Blending Synergy (NCI-H1650 cell line) | Combination Index (NCI-H1975 cell line; [1]) | Combination Index (PC9 cell line; [1]) | Meaning (PC9 cell line; [2]) | Combination Index (PC9 cell line; [3]) | Meaning (PC9 cell line; [4]) | Combination Index (A431 cell line; [7]) | Meaning (A431 cell line; [8]) | Combination Index (NCI-H1650 cell line; [5]) | Combination Index (NCI-H1650 cell line; [7]) | Combination Index (NCI-H1975 cell line; [5]) | Combination Index (NCI-H1975 cell line; [7]) | Combination Index (PC9 cell line; [5]) | Meaning (PC9 cell line; [6]) | Combination Index (PC9 cell line; [7]) | Meaning (PC9 cell line; [8]) | also measured |
| --- | --- | --- | --- | --- | --- | --- | --- | --- | --- | --- | --- | --- | --- | --- | --- | --- | --- | --- | --- | --- | --- |
| Cc1nccc(Nc2cc(-c3cnc(Cl)c(NS(=O)(=O)c4ccc(F)cc4F)c3C)ccn2)n1 [Compound I-299, N-{6-chloro-4-methyl-2′-[(2-methylpyrimidin-4-yl)amino]-3,4′-bipyridin-5-yl}-2,4-difluorobenzenesulfonamide] | 10 to 50 | 1.01 | Additivity (A mean Combination Index in the range (0.7-1.3) is classified as Additivity) | 0.47 | 26.93 | 0.68 | 1.37 | Subadditivity (A mean in the range (1.3-2) is classified as Subadditivity) | 1.18 | Additivity (A mean Combination Index in the range (0.7-1.3) is classified as Additivity) | 1.02 | Additivity (A mean Combination Index in the range (0.7-1.3) is classified as Additivity) | 0.87 | 0.43 | 0.54 | 0.72 | 1.17 | Additivity (A mean Combination Index in the range (0.7-1.3) is classified as Additivity) | 1.00 | Additivity (A mean Combination Index in the range (0.7-1.3) is classified as Additivity) | Combination Index (A431 cell line; [5]): 1.00; Meaning (A431 cell line; [6]): Additivity (A mean Combination Index in the range (0.7-1.3) is classified as Additivity); Combination Index (A431 cell line; [3]): 1.01; Meaning (A431 cell line; [4]): Additivity (A mean Combination Index in the range (0.7-1.3) is classified as Additivity) |
